The values below are quoted from earlier work in US20240398797A1, “COMBINATION THERAPIES FOR METASTATIC CASTRATION-RESISTANT PROSTATE CANCER” (Janssen Pharmaceutica NV, priority 2021, published 2024).

The target in one data set is T1, T877A AR mutant (Homo sapiens, UniProt P10275, T878A).
T1 sequence (P10275 1-920 T878A): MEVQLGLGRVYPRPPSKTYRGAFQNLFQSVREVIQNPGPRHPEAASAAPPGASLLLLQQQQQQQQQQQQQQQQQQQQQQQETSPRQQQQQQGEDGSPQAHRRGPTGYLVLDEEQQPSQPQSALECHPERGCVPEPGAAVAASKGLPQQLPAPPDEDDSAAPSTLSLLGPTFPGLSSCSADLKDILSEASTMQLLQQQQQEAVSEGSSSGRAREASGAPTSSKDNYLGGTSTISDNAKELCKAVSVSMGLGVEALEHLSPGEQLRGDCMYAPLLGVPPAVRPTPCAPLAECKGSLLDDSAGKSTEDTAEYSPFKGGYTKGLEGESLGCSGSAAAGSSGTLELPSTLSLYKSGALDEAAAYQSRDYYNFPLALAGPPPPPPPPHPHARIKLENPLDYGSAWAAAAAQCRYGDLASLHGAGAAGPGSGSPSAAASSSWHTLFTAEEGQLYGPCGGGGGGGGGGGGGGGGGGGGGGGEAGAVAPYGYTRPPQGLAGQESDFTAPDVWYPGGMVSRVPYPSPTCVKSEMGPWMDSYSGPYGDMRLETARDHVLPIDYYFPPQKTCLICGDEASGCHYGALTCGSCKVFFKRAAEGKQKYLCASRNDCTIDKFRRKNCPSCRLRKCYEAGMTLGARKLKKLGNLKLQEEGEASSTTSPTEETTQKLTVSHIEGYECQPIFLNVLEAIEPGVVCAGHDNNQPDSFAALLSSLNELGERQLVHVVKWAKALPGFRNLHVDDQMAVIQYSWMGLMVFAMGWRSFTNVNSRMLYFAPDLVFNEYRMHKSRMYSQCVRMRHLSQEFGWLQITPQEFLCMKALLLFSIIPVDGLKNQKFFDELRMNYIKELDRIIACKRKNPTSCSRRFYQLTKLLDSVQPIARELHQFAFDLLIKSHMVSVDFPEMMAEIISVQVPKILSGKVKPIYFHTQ

The subject of data set [1] is non-castrate hormone-sensitive and bicalutamide-resistant human prostate cancer xenograft models.

Take `CC(C)(O)C(=O)Nc1ccc([N+](=O)[O-])c(C(F)(F)F)c1` [hydroxyflutamide]: the “activity at AR mutant” value at T877A AR mutant is “act as AR agonists”. As to `CNC(=O)c1ccc(N2C(=S)N(c3cnc(C#N)c(C(F)(F)F)c3)C(=O)C23CCC3)cc1F` [Apalutamide, 4-[7-(6-cyano-5-trifluoromethylpyridin-3-yl)-8-oxo-6-thioxo-5,7-diazaspiro [3.4]oct-5-yl]-2-fluoro-N-methylbenzamide], in data set [1], the tumor regression result is given as “partial or complete tumor regression”.
